According to the Kinase Knowledgebase extract (Sharma et al. 2016):

The molecules below were run against MAPK14 (UniProt Q16539) (assay: Inhibition of MAPK14 Kinase Activity).
Sequence of MAPK14 (Q16539 whole entry, looked up): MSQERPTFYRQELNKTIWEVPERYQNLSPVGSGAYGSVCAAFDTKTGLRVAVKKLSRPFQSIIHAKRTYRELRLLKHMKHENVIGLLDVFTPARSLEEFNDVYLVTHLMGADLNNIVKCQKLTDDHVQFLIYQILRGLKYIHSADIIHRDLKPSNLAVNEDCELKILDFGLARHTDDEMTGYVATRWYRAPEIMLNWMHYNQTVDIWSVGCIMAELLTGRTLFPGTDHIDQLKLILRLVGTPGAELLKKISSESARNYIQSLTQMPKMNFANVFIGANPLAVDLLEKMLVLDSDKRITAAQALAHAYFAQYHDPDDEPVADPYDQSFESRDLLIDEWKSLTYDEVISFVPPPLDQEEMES

IC50 [nM] | Structure (SMILES)
616 | O=C(Nc1ccc2c(-c3c(-c4ccccn4)nn4c3CCC4)ccnc2c1)OCCO
2060 | O=C1OCCN1c1ccc2c(-c3c(-c4ccccn4)nn4c3CCC4)ccnc2c1
867 | CN(C)CCNC(=O)Nc1ccc2c(-c3c(-c4ccccn4)nn4c3CCC4)ccnc2c1
1340 | CC(=O)Nc1ccc2c(-c3c(-c4ccccn4)nn4c3CCC4)ccnc2c1
526 | COC(=O)Nc1ccc2c(-c3c(-c4ccccn4)nn4c3CCC4)ccnc2c1
1080 | O=C(NCCO)Nc1ccc2c(-c3c(-c4ccccn4)nn4c3CCC4)ccnc2c1
2570 | Nc1ccc2c(-c3c(-c4ccccn4)nn4c3CCC4)ccnc2c1
1050 | COCCNC(=O)Nc1ccc2c(-c3c(-c4ccccn4)nn4c3CCC4)ccnc2c1
4640 | O=C(Nc1ccc2c(-c3c(-c4ccccn4)nn4c3CCC4)ccnc2c1)Nc1ccc2c(-c3c(-c4ccccn4)nn4c3CCC4)ccnc2c1
1460 | CN(C)CC(=O)Nc1ccc2c(-c3c(-c4ccccn4)nn4c3CCC4)ccnc2c1
2460 | CN(C)CCC(=O)Nc1ccc2c(-c3c(-c4ccccn4)nn4c3CCC4)ccnc2c1
